{"source": "patent US10082506B2", "about": "(Wisconsin Alumni Research Foundation, priority 2014, dated 2018)", "key": {"[1]": {"test_system": "UDP-galactopyranose mutase (UGM)", "conditions": "UGM from the species listed; cited from earlier work"}, "hIntL-1 [2]": {"molecular_target": "T1, hIntL-1 (Homo sapiens, UniProt Q8WWA0)", "T1 sequence (Q8WWA0 19-313)": "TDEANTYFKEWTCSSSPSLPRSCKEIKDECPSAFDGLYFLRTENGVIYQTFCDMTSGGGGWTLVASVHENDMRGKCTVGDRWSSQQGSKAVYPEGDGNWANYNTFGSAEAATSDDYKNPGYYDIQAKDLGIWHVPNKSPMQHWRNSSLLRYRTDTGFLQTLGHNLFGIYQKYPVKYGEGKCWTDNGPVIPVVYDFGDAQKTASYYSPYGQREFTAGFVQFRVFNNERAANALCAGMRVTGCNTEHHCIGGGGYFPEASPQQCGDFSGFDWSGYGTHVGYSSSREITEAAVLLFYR", "assay": "hIntL-1 on CFG mammalian glycan array v5.1", "format": "binding", "design": "made in house; host or cells: HEK 293T (transient transfection, suspension)", "conditions": "hIntL-1 50 and 200 μg/ml"}, "hIntL-1 [3]": {"molecular_target": "T1, hIntL-1", "assay": "hIntL-1 surface plasmon resonance on immobilized carbohydrates", "format": "binding", "design": "made in house; host or cells: HEK 293T (transient transfection, suspension)", "conditions": "concentrations up to 6-fold higher than the β-Galf KD", "procedure": "hIntL-1 Surface Plasmon Resonance (SPR). All hIntL-1 SPR was performed on a ProteOn XPR36 (Bio-Rad) at the University of Wisconsin-Madison Department of Biochemistry Biophysics Instrumentation Facility (BIF). To measure hIntL-1 binding, ProteOn NLC sensor chips (Bio-Rad) (NeutrAvidin coated chips) were used to capture carbohydrate-biotin ligand. All experiments presented here were conducted at surface saturated levels of ligand, ˜200 RU. In all experiments, captured biotin served as a control. Samples containing purified hIntL-1 were prepared by serial dilution into hIntL-1 SPR running buffer (20 mM HEPES (7.4) 150 mM NaCl, 1 mM CaCl2, and 0.005% tween-20). Surfaces were regenerated with short injections of 10 mM HCl. All data was interspot corrected and processed using the Bio-Rad ProteOn software package."}, "hIntL-1 [4]": {"molecular_target": "T1, hIntL-1", "conditions": "reported by Tsuji et al., 2001; read-out: apparent KD / apparent affinity for hIntL-1; cited from earlier work"}, "Strep-hIntL-1": {"molecular_target": "T2, Strep-hIntL-1 (Homo sapiens, UniProt Q8WWA0)", "T2 construct": "made in house; host or cells: HEK 293T (transient transfection)", "T2 sequence (Q8WWA0 19-313)": "as above", "assay": "Strep-hIntL-1 binding to S. pneumoniae serotypes", "conditions": "detected with anti-Strep-tag:Oyster 642 nm antibody"}, "Strep-mIntL-1": {"molecular_target": "Strep-mIntL-1 (Mus musculus, UniProt O88310)", "sequence (O88310 19-298)": "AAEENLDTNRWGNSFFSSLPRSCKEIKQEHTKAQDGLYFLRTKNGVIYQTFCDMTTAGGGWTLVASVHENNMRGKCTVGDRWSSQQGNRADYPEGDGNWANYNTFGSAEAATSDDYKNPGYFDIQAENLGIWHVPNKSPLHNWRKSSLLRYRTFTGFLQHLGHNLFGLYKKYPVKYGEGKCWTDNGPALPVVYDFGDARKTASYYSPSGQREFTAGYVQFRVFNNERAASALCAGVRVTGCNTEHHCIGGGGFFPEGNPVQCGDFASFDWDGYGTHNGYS", "conditions": "SPR, referenced to biotin channel"}, "hIntL-1 [5]": {"molecular_target": "T1, hIntL-1", "assay": "hIntL-1 carbohydrate binding ELISA-like assay (immobilized biotinylated carbohydrates)", "design": "made in house; host or cells: HEK 293T (transient transfection, suspension)", "conditions": "for hIntL-1 binding to immobilized carbohydrate in ELISA: immobilized carbohydrate-biotin ligand", "procedure": "hIntL-1 Carbohydrate Binding ELISA-like Assay. To fabricate carbohydrate-displaying surfaces, 0.5 μg of streptavidin (Prozyme, cat. no. SA20) was adsorbed onto a Maxisorp (Nunc) flat bottom 96 well plate in PBS. Wells were washed with PBS and then coated with 5 μM of carbohydrate-biotin ligand in PBS for 1 hour at 22° C. Wells were blocked with bovine serum albumin (BSA) in ELISA buffer (20 mM HEPES (7.4) 150 mM NaCl, 10 mM CaCl2, and 0.1% tween-20). Samples containing hIntL-1 were prepared by serial dilution into ELISA buffer+0.1% BSA and added to wells for 2 hours at 22° C. Wells were washed four times with ELISA buffer. Bound hIntL-1 was detected using 0.75 μg/mL of a sheep IgG hIntL-1 antibody (R&D Systems, cat. no. AF4254) in ELISA buffer+0.1% BSA for 2 hours at 22° C. Wells were washed with ELISA buffer. A donkey anti-sheep IgG horseradish peroxidase (HRP) conjugate (Jackson ImmunoResearch Laboratories) was added at a 1:5,000 dilution in ELISA buffer+0.1% BSA for 1 hour at 22° C. Wells were washed and hIntL-1 was detected colorimetrically with addition of 1-Step Ultra TMB-ELISA (Pierce). Once sufficient signal was achieved (typically <2 min.), the reaction was quenched with addition of equal volume 2 M H2SO4. Plates were read at 450 nm on an EL×800 plate reader (Bio-Tek). […] Data were analyzed on Prism6 (GraphPad). Data were fit to the one site-specific binding equation."}}, "note": "Read-outs that look alike come from different tables or passages of the source.", "data": [{"smiles": "O=C(O)C(Cc1ccc(I)cc1)Nc1nc(-c2ccc(Cl)c(Cl)c2)cs1", "note": "(stereo not drawn) [3-(4-iodophenyl)-2-[4-(3,4-dichlorophenyl)-thiazol-2-ylamino]-propionic acid]", "values": [{"measurement": "inhibition of UGM", "setting": "[1]", "result": "active against UGM"}]}, {"smiles": "CC(=O)N[C@H]1[C@H](OC[C@H]2OC(O)[C@H](NC(C)=O)[C@@H](O)[C@H]2O)O[C@H](CO)[C@H](O)[C@@H]1O", "note": "(stereo partly drawn) [GalNAcβ1-6GalNAc]", "values": [{"measurement": "hIntL-1 binding signal on CFG mammalian glycan array", "setting": "hIntL-1 [2]", "result": "highest signal"}]}, {"smiles": "OC[C@H]1O[C@@H](O)[C@H](O)[C@@H](O)[C@H]1O", "note": "[β-Galp, β-galactopyranose]", "values": [{"measurement": "hIntL-1 binding to immobilized carbohydrate in SPR", "setting": "hIntL-1 [3]", "result": "small response"}]}, {"smiles": "O=C[C@H](O)[C@H](O)[C@H](O)CO", "note": "[D-ribose]", "values": [{"measurement": "Kd", "setting": "hIntL-1 [4]", "result": "< 5", "unit": "mM"}]}, {"smiles": "CC(=O)N[C@H]1C(O)O[C@H](CO)[C@@H](O[C@@H]2O[C@@H]([C@H](O)CO)[C@H](O)[C@H]2O)[C@@H]1O", "note": "(stereo partly drawn) [2-acetamido-2-deoxy-4-O-beta-D-galactofuranosyl-D-glucopyranose]", "values": [{"measurement": "Kd", "setting": "hIntL-1 [4]", "result": 9, "unit": "mM"}]}, {"smiles": "O=C(O)CN(CCN(CC(=O)O)CC(=O)O)CC(=O)O", "note": "[EDTA]", "values": [{"measurement": "effect of additive on hIntL-1 binding to S. pneumoniae", "setting": "Strep-hIntL-1", "result": "abrogate binding"}, {"measurement": "effect of additive on mIntL-1 carbohydrate binding", "setting": "Strep-mIntL-1", "result": "prevents carbohydrate binding"}, {"measurement": "effect of additive on hIntL-1 binding to β-Galf", "setting": "hIntL-1 [5]; hIntL-1 conditioned HEK culture media, 25 mM EDTA", "result": "completely abolished binding"}]}, {"smiles": "CC(=O)N[C@H]1[C@H]([C@H](O)[C@H](O)CO)OC(O)(C(=O)O)C[C@@H]1O", "note": "(stereo partly drawn) [Neu5Ac, N-acetyl-neuraminic acid]", "values": [{"measurement": "hIntL-1 binding to immobilized carbohydrate in ELISA", "setting": "hIntL-1 [5]", "result": "lack of affinity"}, {"measurement": "hIntL-1 binding to immobilized carbohydrate in ELISA", "setting": "hIntL-1 [5]; listed as α-Neu5Ac", "result": "does not bind"}, {"measurement": "hIntL-1 binding signal on CFG mammalian glycan array", "setting": "hIntL-1 [2]", "result": "lack of affinity"}]}, {"smiles": "OCC(O)CO", "note": "[glycerol]", "values": [{"measurement": "effect of additive on hIntL-1 binding to S. pneumoniae", "setting": "Strep-hIntL-1", "result": "abrogate binding"}]}, {"smiles": "O=C(CCCCC1SCC2NC(=O)NC21)NCCOCCOCCOCCOCc1cn(CCCCCCCCCC=CCOC2OC(C(O)CO)C(O)C2O)nn1", "note": "(stereo not drawn)", "values": [{"measurement": "Kd", "setting": "hIntL-1 [5]; disulfide-linked trimer, immobilized biotinylated carbohydrate, read-out: apparent avidity (apparent Kd) of trimeric hIntL-1 for immobilized ligand", "result": "85 ± 14", "unit": "nM"}, {"measurement": "hIntL-1 binding to immobilized carbohydrate in SPR", "setting": "hIntL-1 [3]", "result": "robust binding"}]}, {"smiles": "Cc1c(C(=O)c2ccc(Cl)cc2)c(O)nn1-c1ccc(Cl)cc1", "note": "[4-chlorophenyl)-[1-(4-chlorophenyl)-3-hydroxy-5-methyl-1H-pyrazol-4-yl]-methanone]", "values": [{"measurement": "inhibition of UGM", "setting": "[1]", "result": "inhibits UGM"}]}]}
